Assay results: patent US12558302B2, “Tyrosinase-inhibiting molecules and dermopharmaceutical composition that includes them” (MESOESTETIC PHARMA GROUP, S.L, priority 2021, dated 2026)
Where “and” joins values, the source holds several entries; their conditions need not be identical. Equal entries are not always repeated.

Legend:
tyrosinase = target: T1, tyrosinase (Homo sapiens, UniProt P14679); assay: tyrosinase activity in lysate of L-tyrosine-stimulated human melanocytes (L-DOPA/MBTH); type: biochemical; details: L-tyrosine-stimulated control = 100%
T1 construct: the cells were trypsinised and lysated in PBS pH 7.0 with 1% Triton X-100; host or cells: human melanocytes (primary), stimulated with 2 mM L-tyrosine; Triton X-100 lysate
T1 sequence (P14679 19-529): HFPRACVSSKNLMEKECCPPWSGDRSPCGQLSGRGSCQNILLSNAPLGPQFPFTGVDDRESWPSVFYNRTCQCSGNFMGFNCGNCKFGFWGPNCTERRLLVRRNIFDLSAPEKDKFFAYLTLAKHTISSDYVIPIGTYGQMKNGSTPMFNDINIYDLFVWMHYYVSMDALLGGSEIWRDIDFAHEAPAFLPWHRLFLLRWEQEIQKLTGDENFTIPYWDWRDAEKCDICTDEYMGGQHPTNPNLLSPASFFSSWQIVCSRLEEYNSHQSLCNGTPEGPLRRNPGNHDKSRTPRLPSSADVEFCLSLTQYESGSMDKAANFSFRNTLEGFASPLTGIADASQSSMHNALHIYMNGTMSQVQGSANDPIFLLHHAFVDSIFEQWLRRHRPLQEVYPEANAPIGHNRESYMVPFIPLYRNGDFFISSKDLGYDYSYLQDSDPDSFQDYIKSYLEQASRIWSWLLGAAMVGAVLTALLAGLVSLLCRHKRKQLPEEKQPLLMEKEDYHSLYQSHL
Experimental: Given the results, an in vitro assay was conducted on human melanocytes. In order to stimulate melanogenic activity in the cells they were treated with L-tyrosine. This compound, in addition to being a substrate of the tyrosinase enzyme, key to melanin synthesis, is capable of activating cell receptors that activate the melanogenesis-regulating signalling pathways (Slominski A, et al. L-tyrosine and L-dihydroxyphenylalanine as hormone-like regulators of melanocyte functions. Pigment Cell Melanoma Res. 2012; 25(1):14-27). This condition is aimed at stimulating melanogenesis in melanocytes for the purpose of extracting tyrosinase and testing the effect of the molecules of the invention.
Thus, human melanocytes were cultured in culture medium (#PCS-200-013, ATCC) and L-tyrosine (2 mM) for 3 days. After the stimulation treatment, the cells were trypsinised and lysated in PBS pH 7.0 with 1% Triton X-100. The cell lysate, which contains tyrosinase, was incubated together with the molecules of the invention at different concentrations (0.1 and 1 mM), L-DOPA and MBTH (Winder A J and Harris H. New assays for the tyrosine hydroxylase and dopa oxidase activities of tyrosinase. Eur. J. Biochem. 1991; 198(2):317-26). L-DOPA acts as a substrate for tyrosinase in the enzyme reaction and MBTH is a compound that bonds to the […] formed from the oxidation of L-DOPA, generating a colour complex. Each of the conditions used was prepared in triplicate. Lastly, absorbance at 492 nm was monitored using a spectrophotometer every 10 min for 2-5 h.

[1] = water solubility compared to DMSO by HPLC; type: physicochemical; details: 50 mg/ml; for Percentage of water solubility compared to the samples dissolved in DMSO: 1 hour stirring at room temperature, filtered, HPLC
Experimental: Solutions are prepared in DMSO and in water for each of the molecules. All the samples are prepared at a final concentration of 50 mg/ml. After stirring for 1 hour at room temperature, the samples are filtered and a HPLC is performed.
In order to calculate the percentage of solubility of each of the molecules, the area of the peak of the sample dissolved in water and in DMSO obtained by HPLC is determined. The results are given as a percentage of solubility of the compound dissolved in water in the compound dissolved in DMSO.

human melanocytes = assay: melanin content in L-tyrosine-stimulated human melanocytes; type: cell-based; details: 3 days, L-tyrosine 2 mM, stimulated control = 100%
Experimental: (§1) With the aim of studying the inhibition of molecules in melanin, an in vitro assay was conducted on human melanocytes using similar conditions to those described in the tyrosinase inhibition assay. L-tyrosine is used to stimulate melanogenic activity in cells with the aim of extracting the melanin. Here, only the molecules with the best tyrosinase-inhibiting activity were tested (formulas (II) and (III)). In this experiment, the concentration of molecules used is the highest possible taking into account the melanocyte cytotoxicity value, 1.25 mM for the molecule of formula (II) and 0.33 mM for the molecule of formula (III).
Thus, human melanocytes are cultured in culture medium (#PCS-200-013, ATCC). L-tyrosine (2 mM) was added together with the molecule treatment. All the conditions were prepared in triplicate. After incubating the cells with the treatments for 3 days, they were trypsinised and lysated in 1M NaOH. Cell lysate absorbance at 340 nm was measured using a spectrophotometer. The absorbance value is directly proportional to melanin content.

melanocyte = melanocyte cytotoxicity; type: cell-based; details: human melanocytes
Experimental: as §1

| SMILES | Percentage of tyrosinase activity (tyrosinase; 0.1 mM) | Percentage of tyrosinase activity (tyrosinase; 1 mM) | Percentage of water solubility compared to the samples dissolved in DMSO [1] [%] | water solubility (in words) [1] | melanin content (human melanocytes; 0.33 mM) [%] | highest possible concentration taking into account the melanocyte cytotoxicity value (melanocyte) [mM] | melanin content (human melanocytes; 1.25 mM) [%] |
| --- | --- | --- | --- | --- | --- | --- | --- |
| CCN(CC)CC.O=C(/C=C/c1ccc(O)cc1)c1ccc(O)c(S(=O)(=O)O)c1 [V M = (C2H5)3N, 5-[(E)-3-(p-hydroxyphenyl)acryloyl]-2-triethylammonium hydroxybenzenesulfonate] | >97% | 83 ± 0% | 100 | – | – | – | – |
| O=C(/C=C/c1ccc(O)cc1)c1ccc(O)cc1 [Reference molecule, (E)-1,3-bis(p-hydroxyphenyl)-2-propen-1-one, reference compound] | 97 ± 3% | 84 ± 4% | 0 | fully water soluble | – | – | – |
| O=C(/C=C/c1ccc(O)c(S(=O)(=O)[O-])c1)c1ccc(O)c(S(=O)(=O)[O-])c1.[K+].[K+] [IV M = K, 5-[(E)-2-(4-hydroxy-3-sulfonatebenzoyl)-1-ethenyl]-2-hydroxybenzenesulfonate, Dipotassium Salt] | >97% | 97 ± 1% | 100 | – | – | – | – |
| O=C(CCc1ccc(O)c(S(=O)(=O)[O-])c1)c1ccc(O)c(S(=O)(=O)[O-])c1.[K+].[K+] [VI M = K, 2-hydroxy-5-[2-(4-hydroxy-3-sulfonatebenzoyl)ethyl]-benzenesulfonate, Dipotassium Salt] | >97% | 91 ± 3% | 100 | – | – | – | – |
| O=C(/C=C/c1ccc(O)cc1)c1ccc(O)c(S(=O)(=O)O)c1 [III, 5-[(E)-3-(p-hydroxyphenyl)acryloyl]-2-hydroxybenzenesulfonic Acid] | 82% and 82 ± 2% | 44% and 44 ± 1% | 84 | highly soluble | 49±7 | 0.33 | – |
| O=C(/C=C/c1ccc(O)c(S(=O)(=O)O)c1)c1ccc(O)c(S(=O)(=O)O)c1 [II, 5-[(E)-2-(4-hydroxy-3-sulfobenzoyl)-1-ethenyl]-2-hydroxybenzenesulfonic Acid] | 97% and 97 ± 0% | 55% and 55 ± 1% | 81 | highly soluble | – | 1.25 | 78±7 |
| O=C(/C=C/c1ccc(O)cc1)c1ccc(O)c(S(=O)(=O)[O-])c1.[Na+] [V M = Na, 5-[(E)-3-(p-hydroxyphenyl)acryloyl]-2-sodium Hydroxybenzenesulfonate] | >97% | 82 ± 3% | 100 | – | – | – | – |
